Data taken from patent US20120184590A1, “FORMULATIONS OF INDOLE-3-CARBINOL DERIVED ANTITUMOR AGENTS WITH INCREASED ORAL BIOAVAILABILITY” (UNIVERSITY OF KANSAS, priority 2009, published 2012).
Several values for one entry are separate records, joined by “and”; a condition that tells them apart may be missing. Equal values may be shown once. Entries after “also recorded” stand apart in the source; their conditions may differ. Read-outs that look alike come from different tables or passages of the source. Marks after values point to notes of the source that are not given here.

Experiments:
[1] = Pharmacokinetics of SR13668 in monkeys after i.v. and oral gavage dosing; type: in vivo, cynomolgus monkeys (macaca fasicularis); conditions: for Fabs F/(1-ER): blood; for Vd/F: read-out: VZ/F
Text: Four non-naïve male beagle dogs (approximately 3 years of age; Ridglan Farms Inc. Mt. Horeb, Wis.) and four non-naïve male cynomolgus monkeys [cynos (macaca fasicularis); approximately 7 to 8 years of age; Charles River Laboratories, Inc., Houston, Tex.] were used in this study. Prior to experimental initiation for the present study, the attending veterinarian certified that the animals were healthy and free from disease and parasites.
For both species, each animal was part of each experimental group, with a 7-day interval between treatments to allow for washout of the dosing formulation and its effects. Dosing formulations of SR13668 were administered by oral gavage (intragastric) or intravenous (i.v.) injection as a single dose or once daily for seven consecutive days. Oral to doses were administered at a dosing volume of 5 mL/kg of body weight, while intravenous doses were administered at a dosing volume of 0.5 mL/kg of body weight. Dogs were dosed with 93.6 mg/m^2 SR13668 intravenously in DMSO:PEG300 15:85 (v/v) or orally in Solutol® vehicle (two groups, fed and after an overnight fast). Monkeys were dosed with 84.2 mg/m^2 SR13668 intravenously in DMSO:PEG300 15:85 (v/v) or orally (336.7 mg/m^2 SR13668 for the oral high dose group) in PEG400:Labrasol® 1:1 (v/v) or Solutol® vehicles. Vehicle control groups were used to assess the tolerability of the vehicle and for clinical pathology evaluations.
Blood samples were collected from each animal at 10 time points (0, 0.25, 0.5, 1, 2, 4, 6, 8, 12 and 24 hours post-dose) during the first and last 24-hour segment of each dosing regimen. For single intravenous dose experiments, samples were collected during the 24-hour post-dose period only. Samples were transferred to Vacutainer tubes containing ethylenediaminetetraacetic acid (EDTA; Fisher Scientific, Pittsburgh, Pa.). The tubes were inverted several times to mix and then placed on ice until storage or centrifugation for plasma preparation. After centrifugation, the plasma was transferred into storage tubes (0.5 mL), which were placed on dry ice and then stored frozen (approximately −70° C.).
Levels of SR13668 in plasma and blood were measured using a tandem mass to spectrometer (API 3000; Applied Biosystems/MDS Sciex, Foster City, Calif.) equipped with a high performance liquid chromatograph (Agilent 1200; Agilent Technologies, Wilmington, Del.). For SR13668 determination, a 100 μL blood or plasma aliquot was mixed with 1 mL of acetonitrile (ACN; Sigma-Aldrich, St. Louis, Mo.). After vortex-mixing for one minute, the sample was centrifuged at 4° C. and 7000 RPM for 10 minutes to remove precipitated proteins, and the supernatant was transferred to a clean tube and dried under nitrogen flow at room temperature (approximately 25° C.). After the evaporation was completed, the residue was reconstituted in 500 μL of ACN/water (v/v 70:30), and vortex-mixed and centrifuged again. An aliquot of the resulting supernatant was transferred to an autosampler tube for instrumental analysis.
A freshly prepared SR13668 standard curve was analyzed along with samples on each day of analysis. The chromatographic column was a Luna 3μ C18(2) 110 Å 30×2.0 mm (Phenomenex, Torrance, Calif.). The column temperature was maintained at 25° C., and a flow rate of 0.30 mL/min was used. The mobile phase consisted of MPA: formic acid in water (0.05%, v/v) and MPB: formic acid in ACN (0.05%, v/v). The mobile phase gradient was as follows: after injection, initial conditions with MPA at 40% were held for 0.01 min, decreased to 5% and held constant for 3 min, returning to initial conditions for another 3 min of re-equilibration time. Retention time of SR13668 was approximately 2.4 min. Total run time was 6 min. A turbo ion spray interface was used as the ion source operating in negative ion mode. Acquisition was performed in multiple reaction monitoring mode using ions 429.15 (Q1) and 414.12 (Q3) Dalton. […]

[2] = Oral bioavailability of PEG400:Labrasol formulation in dogs (earlier finding); conditions: dog, in vivo
[3] = male, cynomolgus monkey, plasma, iv, 7.02 mg/kg, plasma, 84.2 mg/m^2 (7.02 mg/kg) i.v. single dose, DMSO:PEG300 15:85 v/v, fed
[4] = male, cynomolgus monkey, plasma, po, 7.02 mg/kg, 84.2 mg/m^2 (7.02 mg/kg) oral gavage, Solutol, seventh daily dose, fed
[5] = male, cynomolgus monkey, plasma, po, 7.02 mg/kg, plasma, 84.2 mg/m^2 (7.02 mg/kg) oral gavage, PEG400:Labrasol 1:1 v/v, seventh daily dose, fed
[6] = male, cynomolgus monkey, plasma, po, 28.06 mg/kg, plasma, 336.7 mg/m^2 (28.06 mg/kg) oral gavage, PEG400:Labrasol 1:1 v/v, seventh daily dose, fed
[7] = male, cynomolgus monkey, whole blood, iv, 7.02 mg/kg, whole blood, 84.2 mg/m^2 (7.02 mg/kg) iv single dose, DMSO:PEG300 15:85 v/v, fed
[8] = male, cynomolgus monkey, whole blood, po, 7.02 mg/kg, 84.2 mg/m^2 (7.02 mg/kg) oral gavage, Solutol, seventh daily dose, fed
[9] = male, cynomolgus monkey, whole blood, po, 7.02 mg/kg, whole blood, 84.2 mg/m^2 (7.02 mg/kg) oral gavage, PEG400:Labrasol 1:1 v/v, seventh daily dose, fed
[10] = male, cynomolgus monkey, whole blood, po, 28.06 mg/kg, whole blood, 336.7 mg/m^2 (28.06 mg/kg) oral gavage, PEG400:Labrasol 1:1 v/v, seventh daily dose, fed
[11] = male, cynomolgus, cynomolgus monkey, plasma, iv, 7.02 mg/kg, plasma, 84.2 mg/m^2 (7.02 mg/kg) i.v. single dose, DMSO:PEG300 15:85 v/v, fed
[12] = male, cynomolgus, cynomolgus monkey, plasma, po, 7.02 mg/kg, plasma, 84.2 mg/m^2 (7.02 mg/kg) oral gavage, PEG400:Labrasol 1:1 v/v, seventh daily dose, fed
[13] = plasma, 84.2 mg/m^2 (7.02 mg/kg) i.v. single dose, DMSO:PEG300 15:85 v/v, fed
[14] = whole blood, 84.2 mg/m^2 (7.02 mg/kg) iv single dose, DMSO:PEG300 15:85 v/v, fed

CCOC(=O)c1ccc2[nH]c3c(OC)c4[nH]c5ccc(C(=O)OCC)cc5c4cc3c2c1 [SR13668, 2,10-dicarbethoxy-6-methoxy-5,7-dihydro-indolo-(2,3-b)carbazole]
effect of fourfold dose increase on oral bioavailability ([1]; PEG400:Labrasol, 84.2 vs 336.7 mg/m^2): about a fourfold decrease in the bioavailability; also recorded: lower oral bioavailability | CL ([1]; blood clearance, 84.2 mg/m^2 (7.02 mg/kg) oral gavage, PEG400:Labrasol 1:1 v/v, fed): 121 mL/min/kg | CL ([1]; blood clearance, 84.2 mg/m^2 (7.02 mg/kg) oral gavage, Solutol, fed): 47.7 mL/min/kg | CL ([1]; blood clearance, 336.7 mg/m^2 (28.06 mg/kg) oral gavage, PEG400:Labrasol 1:1 v/v, fed): 332 mL/min/kg | Fabs F/(1-ER) ([1]; 84.2 mg/m^2 (7.02 mg/kg) oral gavage, PEG400:Labrasol 1:1 v/v, fed): 4.1% | Fabs F/(1-ER) ([1]; 84.2 mg/m^2 (7.02 mg/kg) oral gavage, Solutol, fed): 9.1% | Fabs F/(1-ER) ([1]; 336.7 mg/m^2 (28.06 mg/kg) oral gavage, PEG400:Labrasol 1:1 v/v, fed): 1.2% | ER CLiv/Q ([1]; iv blood clearance over hepatic blood flow 43.6 mL/min/kg): 0.083 | AUC(0-inf) [1, 3]: 13300 ± 4920 ng·h/mL | Cmax [1, 3]: 6090 ± 1080 ng/mL | MRT [1, 3]: 6.9 ± 1.1 h | AUC(0-inf) [1, 4]: 837 ± 144 ng·h/mL | Cmax [1, 4]: 71.4 ± 16 ng/mL | MRT [1, 4]: 12.8 ± 2.1 h | Tmax [1, 4]: 8 ± 3.3 h | AUC(0-inf) [1, 5]: 437 ± 312 ng·h/mL | Cmax [1, 5]: 40.5 ± 38 ng/mL | MRT [1, 5]: 11.6 ± 1.3 h | CL/F ([1]; male, cynomolgus monkey, plasma, po, 7.02 mg/kg, plasma, 84.2 mg/m^2 (7.02 mg/kg) oral gavage, PEG400:Labrasol 1:1 v/v, seventh daily dose, fed, read-out: CL/F (converted)): 372 mL/min/kg | Vd/F [1, 5]: 203 ± 130 L/kg | CL/F ([1]; male, cynomolgus monkey, plasma, po, 7.02 mg/kg, plasma, 84.2 mg/m^2 (7.02 mg/kg) oral gavage, Solutol, seventh daily dose, fed, read-out: CL/F (converted)): 143 mL/min/kg | Vd/F ([1]; male, cynomolgus monkey, plasma, po, 7.02 mg/kg, plasma, 84.2 mg/m^2 (7.02 mg/kg) oral gavage, Solutol, seventh daily dose, fed): 90.5 ± 9.9 L/kg | AUC(0-inf) [1, 6]: 367 ± 154 ng·h/mL | Cmax [1, 6]: 43.7 ± 9.2 ng/mL | MRT [1, 6]: 9.1 ± 2.4 h | Tmax [1, 6]: 3.5 ± 1.9 h | CL/F ([1]; male, cynomolgus monkey, plasma, po, 28.06 mg/kg, plasma, 336.7 mg/m^2 (28.06 mg/kg) oral gavage, PEG400:Labrasol 1:1 v/v, seventh daily dose, fed, read-out: CL/F (converted)): 1440 mL/min/kg | Vd/F [1, 6]: 603 ± 236 L/kg | AUC(0-inf) [1, 7]: 35400 ± 12400 ng·h/mL | Cmax [1, 7]: 11100 ± 776 ng/mL | MRT [1, 7]: 9 ± 2.2 h | Tmax [1, 7]: 0.25 h | half-life [1, 7]: 8.6 ± 1.7 h | AUC(0-inf) [1, 8]: 2490 ± 377 ng·h/mL | Cmax [1, 8]: 227 ± 56 ng/mL | MRT [1, 8]: 13.3 ± 1.1 h | Tmax [1, 8]: 6.5 ± 3.8 h | half-life [1, 8]: 7.7 ± 0.6 h | AUC(0-inf) [1, 9]: 1560 ± 1330 ng·h/mL | Cmax [1, 9]: 129 ± 140 ng/mL | MRT [1, 9]: 11.5 ± 1.2 h | Tmax [1, 9]: 7 ± 0.35 h | half-life [1, 9]: 5.8 ± 0.9 h | CL/F ([1]; male, cynomolgus monkey, whole blood, po, 7.02 mg/kg, whole blood, 84.2 mg/m^2 (7.02 mg/kg) oral gavage, PEG400:Labrasol 1:1 v/v, seventh daily dose, fed, read-out: CL/F (converted)): 121 mL/min/kg | Vd/F [1, 9]: 61.4 ± 44 L/kg | CL/F ([1]; male, cynomolgus monkey, whole blood, po, 7.02 mg/kg, whole blood, 84.2 mg/m^2 (7.02 mg/kg) oral gavage, Solutol, seventh daily dose, fed, read-out: CL/F (converted)): 47.7 mL/min/kg | Vd/F ([1]; male, cynomolgus monkey, whole blood, po, 7.02 mg/kg, whole blood, 84.2 mg/m^2 (7.02 mg/kg) oral gavage, Solutol, seventh daily dose, fed): 31.6 ± 5 L/kg | AUC(0-inf) [1, 10]: 1520 ± 445 ng·h/mL | Cmax [1, 10]: 168 ± 35 ng/mL | MRT [1, 10]: 10.9 ± 2.2 h | Tmax [1, 10]: 3.5 ± 1.9 h | half-life [1, 10]: 6.8 ± 1.2 h | CL/F ([1]; male, cynomolgus monkey, whole blood, po, 28.06 mg/kg, whole blood, 336.7 mg/m^2 (28.06 mg/kg) oral gavage, PEG400:Labrasol 1:1 v/v, seventh daily dose, fed, read-out: CL/F (converted)): 332 mL/min/kg | Vd/F [1, 10]: 195 ± 73 L/kg | Tmax [1, 11]: 0.25 h | half-life [1, 11]: 7.6 ± 0.8 h | half-life ([1]; male, cynomolgus, cynomolgus monkey, plasma, po, 7.02 mg/kg, 84.2 mg/m^2 (7.02 mg/kg) oral gavage, Solutol, seventh daily dose, fed): 7.4 ± 0.7 h | Tmax [1, 12]: 5 ± 1.2 h | half-life [1, 12]: 6 ± 1.3 h | half-life ([1]; male, cynomolgus, cynomolgus monkey, plasma, po, 28.06 mg/kg, plasma, 336.7 mg/m^2 (28.06 mg/kg) oral gavage, PEG400:Labrasol 1:1 v/v, seventh daily dose, fed): 5 ± 1.2 h | clearance ([1]; male, cynomolgus, cynomolgus monkey, whole blood, blood clearance, 84.2 mg/m^2 (7.02 mg/kg) iv, DMSO:PEG300 15:85 v/v, fed): 3.63 mL/min/kg | CL/F [1, 13]: 0.580 ± 0.20^c,d L/hr/kg | F0-∞ [1, 13]: 100% | F0-∞ ([1]; plasma, 84.2 mg/m^2 (7.02 mg/kg) oral gavage, PEG400:Labrasol 1:1 v/v, seventh daily dose, fed): 3.3 ± 2.0^f % | F0-∞ ([1]; plasma, 84.2 mg/m^2 (7.02 mg/kg) oral gavage, Solutol, seventh daily dose, fed): 7.3 ± 2.9^i % | F0-∞ ([1]; plasma, 336.7 mg/m^2 (28.06 mg/kg) oral gavage, PEG400:Labrasol 1:1 v/v, seventh daily dose, fed): 0.72 ± 0.28^i % | CL/F [1, 14]: 0.218 ± 0.078^c,d,h L/hr/kg | F0-∞ [1, 14]: 100% | F0-∞ ([1]; whole blood, 84.2 mg/m^2 (7.02 mg/kg) oral gavage, PEG400:Labrasol 1:1 v/v, seventh daily dose, fed): 3.8 ± 3.1^e,h % and 3.8% | F0-∞ ([1]; whole blood, 84.2 mg/m^2 (7.02 mg/kg) oral gavage, Solutol, seventh daily dose, fed): 8.3 ± 3.1^e,h,i % and 8.3% | F0-∞ ([1]; whole blood, 336.7 mg/m^2 (28.06 mg/kg) oral gavage, PEG400:Labrasol 1:1 v/v, seventh daily dose, fed): 1.1 ± 0.44^h % and 1.1% | bioavailability [2]: < 1%
